Assay [1] addresses T1, Mannose-6-phosphate isomerase (Homo sapiens, UniProt P34949).
T1 sequence (P34949 whole entry): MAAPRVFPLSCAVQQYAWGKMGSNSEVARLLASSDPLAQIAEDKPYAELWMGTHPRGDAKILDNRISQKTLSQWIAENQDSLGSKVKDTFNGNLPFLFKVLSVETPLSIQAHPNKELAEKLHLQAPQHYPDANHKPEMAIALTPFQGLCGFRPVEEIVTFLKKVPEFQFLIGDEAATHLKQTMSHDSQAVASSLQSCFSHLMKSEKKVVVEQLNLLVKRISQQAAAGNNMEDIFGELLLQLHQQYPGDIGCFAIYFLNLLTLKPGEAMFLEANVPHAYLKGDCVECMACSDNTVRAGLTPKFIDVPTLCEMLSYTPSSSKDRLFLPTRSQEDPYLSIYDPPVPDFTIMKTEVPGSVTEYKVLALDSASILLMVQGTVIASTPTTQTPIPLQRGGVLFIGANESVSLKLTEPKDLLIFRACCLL
The experiment in a line: inhibitors of human PMI, primary screen, biochemical, fluorescence intensity, coupled assay (AID 1209).

Assay [2] concerns the target T1, Mannose-6-phosphate isomerase. The experiment in a line: human PMI inhibitors, high substrate, primary screen, biochemical, fluorescence intensity, high mannose 6-phosphate (AID 1220).
The nature of assay [3]: THP-1 cell cytotoxicity, dose response, cytotoxicity control for Vif-APOBEC3G degradation inhibitor project, THP-1 cells (AID 1117359). It counts as functional. The settings on record: Human immunodeficiency virus 1, THP-1.
In assay [4] the test system is Streptococcus sp. 'group A'. The experiment in a line: growth inhibition of control SK(-) GAS strain, dose response, counter-screen for streptokinase expression inhibitor project, luminescence, kanamycin, BacTiterGlo, confirmation (AID 1900). It counts as functional, organism-based.
The target in assay [5] is Sphingosine 1-phosphate receptor 2 (Homo sapiens, UniProt O95136). As to the kind of experiment: Dose Response Cell Based Assay for Antagonists of the S1P2 Receptor. [Related pubchem assays: 856, 736 ]. It counts as functional.
Another assay deals with Streptococcus. The experiment in a line: Group A Streptococcus viability loss, dose response, counter-screen for streptokinase expression inhibitor project, luminescence, BacTiterGlo (AID 1915).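 Note: potency for reduction of bacterial viability or growth.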 It counts as functional, organism-based.
The nature of assay [6]: inhibitors of intracellular T. cruzi replication, confirmation, NIH3T3 host cells, beta-gal luminescence (AID 2044).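 Note: intracellular parasites grown in NIH/3T3 mouse fibroblasts as host cells; luminescent beta-galactosidase reporter signal from transgenic T. cruzi replicating inside host cells; inhibitors lower the luminescence signal.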 It is filed as functional, cell-based.
Assay [7] can be described thus: cytotoxicity toward NIH3T3 fibroblasts, dose response, counter-screen, cell-based, ATP luminescence, mouse fibroblasts (AID 2010).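 Note: cells exposed to compound for about 90 hours before reading.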 It is filed as functional.
A further assay has as its system H4. As to the kind of experiment: Luminescence Cell-Based Dose Response HTS to Identify Activators of 5'UTR Stem-Loop Driven Prion Protein mRNA Translation in H4 Neuroglioblastoma Cells. [Related pubchem assays: 1829 (Project Summary), 1814 (Primary HTS)]. The settings on record: Homo sapiens. It is filed as functional.
A short description of assay [8]: Luminescence Cell-Based Dose Response to Identify Activators of Luciferase Translation or Activity in H4-C Neuroglioblastoma Cells. [Related pubchem assays: 1829 (Project Summary), 1814 (Primary HTS)]. It is filed as functional.
Assay [9] is described as follows: Luminescence Cell-Based Dose Response to Identify Activators of 5'UTR Stem-Loop Driven Prion Protein mRNA Translation in H4-C Neuroglioblastoma Cells. [Related pubchem assays: 1829 (Project Summary), 1814 (Primary HTS)]. It is filed as functional.
Assay [10] in a line: Luminescence Cell-Based Dose Confirmation to Identify Activators of 5'UTR Stem-Loop Driven Alpha-Synuclein mRNA Translation in H4 Neuroglioblastoma Cells. [Related pubchem assays: 1829 (Project Summary), 1814 (Primary HTS)]. It counts as functional.
Assay [11] can be described thus: Luminescence Cell-Based Dose Response HTS to Identify Activators of Luciferase Translation or Activity in H4 […] Cells. [Related pubchem assays: 1829 (Project Summary), 1814 (Primary HTS)]. It is filed as functional.
Assay [12] deals with T2, Apoptotic protease-activating factor 1 (Homo sapiens, UniProt O14727).
T2 sequence (O14727 whole entry): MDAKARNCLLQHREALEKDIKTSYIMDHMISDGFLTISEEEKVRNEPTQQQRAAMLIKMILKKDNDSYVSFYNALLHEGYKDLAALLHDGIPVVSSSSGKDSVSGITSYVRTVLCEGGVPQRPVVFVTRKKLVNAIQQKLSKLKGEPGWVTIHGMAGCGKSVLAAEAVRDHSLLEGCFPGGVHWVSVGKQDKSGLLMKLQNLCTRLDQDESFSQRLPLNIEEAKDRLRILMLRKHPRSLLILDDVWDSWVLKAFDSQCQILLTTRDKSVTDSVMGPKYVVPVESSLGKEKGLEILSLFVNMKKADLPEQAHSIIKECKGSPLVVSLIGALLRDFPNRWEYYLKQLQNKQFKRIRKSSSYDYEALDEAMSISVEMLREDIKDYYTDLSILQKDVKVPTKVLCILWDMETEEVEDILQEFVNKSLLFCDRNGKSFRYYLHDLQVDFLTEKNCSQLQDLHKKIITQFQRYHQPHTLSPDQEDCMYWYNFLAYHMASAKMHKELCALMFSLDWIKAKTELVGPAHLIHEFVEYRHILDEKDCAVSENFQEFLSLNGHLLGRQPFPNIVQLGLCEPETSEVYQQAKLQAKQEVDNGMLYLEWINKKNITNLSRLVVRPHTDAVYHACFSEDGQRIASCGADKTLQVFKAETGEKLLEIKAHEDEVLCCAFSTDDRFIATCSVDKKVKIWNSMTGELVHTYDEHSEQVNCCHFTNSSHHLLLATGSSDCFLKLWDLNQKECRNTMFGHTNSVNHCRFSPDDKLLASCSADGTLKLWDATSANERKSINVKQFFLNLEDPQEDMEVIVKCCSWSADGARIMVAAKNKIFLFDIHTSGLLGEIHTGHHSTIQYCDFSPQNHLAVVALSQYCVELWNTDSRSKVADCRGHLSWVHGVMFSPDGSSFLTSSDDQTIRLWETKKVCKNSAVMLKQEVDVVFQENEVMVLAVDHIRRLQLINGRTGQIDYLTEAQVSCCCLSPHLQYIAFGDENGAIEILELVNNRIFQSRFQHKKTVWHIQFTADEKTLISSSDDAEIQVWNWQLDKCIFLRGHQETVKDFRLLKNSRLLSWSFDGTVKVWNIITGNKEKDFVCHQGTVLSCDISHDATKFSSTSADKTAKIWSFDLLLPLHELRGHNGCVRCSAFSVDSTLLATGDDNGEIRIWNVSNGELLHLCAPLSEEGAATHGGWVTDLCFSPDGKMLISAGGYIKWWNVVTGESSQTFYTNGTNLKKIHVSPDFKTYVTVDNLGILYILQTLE
It counts as functional.

The target of assay [13] is T3, Aryl hydrocarbon receptor (Homo sapiens, UniProt P35869).
T3 sequence (P35869 whole entry): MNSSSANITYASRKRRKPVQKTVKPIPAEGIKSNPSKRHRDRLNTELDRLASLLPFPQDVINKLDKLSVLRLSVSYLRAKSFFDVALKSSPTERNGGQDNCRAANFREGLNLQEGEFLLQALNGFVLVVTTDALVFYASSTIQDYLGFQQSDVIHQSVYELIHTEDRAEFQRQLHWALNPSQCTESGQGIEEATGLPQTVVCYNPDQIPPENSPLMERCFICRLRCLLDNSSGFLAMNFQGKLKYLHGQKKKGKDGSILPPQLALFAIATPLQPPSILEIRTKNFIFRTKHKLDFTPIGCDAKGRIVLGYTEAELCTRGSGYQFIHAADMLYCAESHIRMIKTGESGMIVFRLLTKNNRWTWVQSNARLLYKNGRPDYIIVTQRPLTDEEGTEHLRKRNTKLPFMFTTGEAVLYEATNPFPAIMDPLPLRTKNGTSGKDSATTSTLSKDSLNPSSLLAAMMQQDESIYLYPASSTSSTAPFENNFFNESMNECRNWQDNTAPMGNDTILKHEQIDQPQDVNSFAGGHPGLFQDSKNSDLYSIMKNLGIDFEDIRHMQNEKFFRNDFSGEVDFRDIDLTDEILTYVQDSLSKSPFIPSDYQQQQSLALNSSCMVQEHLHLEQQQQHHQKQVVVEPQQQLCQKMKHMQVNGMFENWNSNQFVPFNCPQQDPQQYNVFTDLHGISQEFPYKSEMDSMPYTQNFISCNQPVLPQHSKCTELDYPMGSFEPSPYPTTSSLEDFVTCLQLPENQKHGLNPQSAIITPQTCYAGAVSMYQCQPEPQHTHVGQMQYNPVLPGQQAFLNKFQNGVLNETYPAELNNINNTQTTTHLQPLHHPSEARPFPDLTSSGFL
As to the kind of experiment: Luminescence-based cell-based high throughput dose response assay for activators of the Aryl Hydrocarbon Receptor (AHR). [Related pubchem assays: 2796 (Primary screen (AHR activators in singlicate)), 2845 (Confirmation screen (AHR activators in triplicate)), 434939 (Counterscreen (PXR activators in triplicate)), 2804 (Summary (AHR activators))]. It is filed as ADME. (A counterscreen serves to expose hits that act by an unwanted route or on another target.)

In assay [14] the target is E3 ubiquitin-protein ligase Mdm2 (Homo sapiens, UniProt Q00987). The experiment in a line: enhancers of MDM2-luciferase reporter signal, concentration-effect titration, project on inhibitors of MDM2 ubiquitin ligase, cellular assay, luminescent readout, 384-well plate format (AID 1394).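 Note: MDM2 E3 inhibitors raise luminescence so EC50 is for signal enhancement.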 It counts as functional. For orientation: A reporter such as luciferase makes a cellular process visible.

Assay [15] concerns the target Voltage-gated inwardly rectifying potassium channel KCNH2 (Homo sapiens, UniProt Q12809). The experiment in a line: hERG protection from proarrhythmic block, potency, dose response, cell-based, thallium flux (AID 2121). It is filed as ADME. Background: hERG is a cardiac potassium channel; its block is linked to QT prolongation.

Activity calls are given as the source filed them.

Sequence of Sphingosine 1-phosphate receptor 2 (O95136 whole entry): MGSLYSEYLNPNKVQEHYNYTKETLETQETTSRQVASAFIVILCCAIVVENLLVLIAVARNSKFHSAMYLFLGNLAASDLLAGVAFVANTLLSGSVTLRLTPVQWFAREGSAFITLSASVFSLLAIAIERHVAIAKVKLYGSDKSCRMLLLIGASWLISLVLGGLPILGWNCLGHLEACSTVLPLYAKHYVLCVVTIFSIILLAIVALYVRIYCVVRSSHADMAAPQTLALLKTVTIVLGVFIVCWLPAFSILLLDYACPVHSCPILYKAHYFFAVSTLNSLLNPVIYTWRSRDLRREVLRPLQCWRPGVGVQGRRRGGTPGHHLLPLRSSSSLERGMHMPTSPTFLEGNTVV
Sequence of E3 ubiquitin-protein ligase Mdm2 (Q00987 whole entry): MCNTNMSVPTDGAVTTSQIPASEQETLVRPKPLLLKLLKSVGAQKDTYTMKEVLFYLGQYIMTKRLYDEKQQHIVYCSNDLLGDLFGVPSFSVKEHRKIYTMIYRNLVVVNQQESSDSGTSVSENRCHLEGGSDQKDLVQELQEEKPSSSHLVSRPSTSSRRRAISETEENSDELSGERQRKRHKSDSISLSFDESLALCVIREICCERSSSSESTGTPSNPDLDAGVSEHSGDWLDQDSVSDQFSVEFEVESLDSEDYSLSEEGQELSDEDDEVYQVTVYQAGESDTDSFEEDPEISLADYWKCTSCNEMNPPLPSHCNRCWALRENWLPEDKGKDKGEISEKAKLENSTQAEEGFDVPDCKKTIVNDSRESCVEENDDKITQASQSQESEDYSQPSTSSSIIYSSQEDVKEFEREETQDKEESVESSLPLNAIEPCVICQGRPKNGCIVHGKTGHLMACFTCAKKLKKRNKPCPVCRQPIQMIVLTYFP
Sequence of Voltage-gated inwardly rectifying potassium channel KCNH2 (Q12809 whole entry): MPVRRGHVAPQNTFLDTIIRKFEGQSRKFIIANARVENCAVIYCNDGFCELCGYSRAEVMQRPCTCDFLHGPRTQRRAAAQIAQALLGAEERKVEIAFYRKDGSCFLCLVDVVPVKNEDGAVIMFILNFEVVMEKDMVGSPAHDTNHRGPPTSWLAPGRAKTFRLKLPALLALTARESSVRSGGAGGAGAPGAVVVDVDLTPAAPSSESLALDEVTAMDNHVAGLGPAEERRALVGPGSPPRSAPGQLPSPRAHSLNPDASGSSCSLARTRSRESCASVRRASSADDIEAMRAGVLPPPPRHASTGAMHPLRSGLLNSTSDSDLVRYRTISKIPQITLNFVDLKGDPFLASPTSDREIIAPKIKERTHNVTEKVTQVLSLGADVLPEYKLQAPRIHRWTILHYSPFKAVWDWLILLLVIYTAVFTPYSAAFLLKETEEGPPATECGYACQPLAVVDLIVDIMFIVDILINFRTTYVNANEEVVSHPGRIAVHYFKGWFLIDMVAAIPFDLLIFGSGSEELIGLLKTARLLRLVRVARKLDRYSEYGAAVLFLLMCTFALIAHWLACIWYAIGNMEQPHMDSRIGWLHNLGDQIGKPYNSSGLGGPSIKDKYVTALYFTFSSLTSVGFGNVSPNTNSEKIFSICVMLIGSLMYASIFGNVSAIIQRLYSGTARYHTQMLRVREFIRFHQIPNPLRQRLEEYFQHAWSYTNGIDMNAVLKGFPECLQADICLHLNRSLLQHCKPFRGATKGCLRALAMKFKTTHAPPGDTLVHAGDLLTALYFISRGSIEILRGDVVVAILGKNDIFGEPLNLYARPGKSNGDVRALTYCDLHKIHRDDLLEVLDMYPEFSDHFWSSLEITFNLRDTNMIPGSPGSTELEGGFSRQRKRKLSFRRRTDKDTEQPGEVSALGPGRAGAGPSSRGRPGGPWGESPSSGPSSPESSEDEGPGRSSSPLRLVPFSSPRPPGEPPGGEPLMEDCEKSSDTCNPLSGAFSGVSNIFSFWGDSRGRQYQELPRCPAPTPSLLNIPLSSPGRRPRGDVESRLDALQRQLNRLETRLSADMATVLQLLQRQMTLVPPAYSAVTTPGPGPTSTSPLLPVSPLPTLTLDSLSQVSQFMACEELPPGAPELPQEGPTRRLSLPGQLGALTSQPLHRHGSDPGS

The IC50 is the midpoint of a concentration-inhibition curve. Usually CC50 stands for the concentration at which the toxic effect on the cells reaches its halfway point. For the compound `CC(C)NC[C@@H](O)c1ccc(O)c(O)c1`, the IC50 in [1] and in assay [2] was > 50 µM (not active) in each case. In assay [3], the CC50 is > 40 µM (active).

In general, EC50 refers to the midpoint of the concentration-response curve. On to `Cn1c(-c2c(N)n(C3CCCC3)c3nc4ccccc4nc23)nc2ccccc21`, for which the EC50 was 0.391 µM (active) in assay [4], 2.96 µM (active) in the assay on Streptococcus, 0.905 µM (active) in assay [6] and > 30 µM (not active) in assay [7]. In addition, the IC50 in [5] is 5.09 µM (active).

For the compound `Cc1cc(NC(=O)c2noc3c2CCCCC3)no1`, the EC50 is 32.2 µM (active) in the assay on H4; 0.648 µM (active) in assay [8]; 2.21 µM (active) in [9]; 5.07 µM (active) in assay [10]; < 0.1 µM (inconclusive) in [11].

`CCN1C(=O)c2cccc3c(N)ccc1c23`: the IC50 is > 50 µM (not active) in [2] and 44 µM (active) in assay [12].

For the compound `CCC(=O)NC(=S)Nc1ccc(NC(=O)c2ccco2)c(Cl)c1`, the half-maximal effective concentration (EC50) in assay [13] is 4.47 µM (active).

In the case of `Cc1nc(SCc2ccc(F)cc2)c([N+](=O)[O-])[nH]1`, the EC50 in assay [14] was 7.19 µM (not active).

Consider `FC(F)(F)c1cnc2c(-c3cccs3)c(-c3nc[nH]n3)sc2c1`, for which the IC50 in assay [5] is recorded as 13.9 µM (not active).

For the compound `O=C(NC(=S)Nc1cc(C(F)(F)F)ccc1Cl)c1ccccc1`, in assay [15], the EC50 was 0.24 µM (active).

`C/C(=N/Nc1ccc(F)cc1)c1ccc(Cl)s1`: the concentration giving a half-maximal response (EC50) in assay [13] was 4.71 µM (active).

The values above are taken from ChEMBL document CHEMBL1201862, “PubChem BioAssay data set” (2004).
